The supplement of paper PMC10307832

Legend:
Test in all cases: relative viability (nuclei count vs DMSO), 5 days (fraction); higher = more cells survive
IMD-0354 + Trametinib = compound: O=C(Nc1cc(C(F)(F)F)cc(C(F)(F)F)c1)c1cc(Cl)ccc1O [IMD-0354] + CC(=O)Nc1cccc(-n2c(=O)n(C3CC3)c(=O)c3c(Nc4ccc(I)cc4F)n(C)c(=O)c(C)c32)c1 [Trametinib] (partner 0.02 µM)
Summary of the method: (§1)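 After 5 days of treatment, lung cancer cells in 1536-well plates were fixed and stained in a single step (final 0.05% Triton X-100, 1% formaldehyde, 1 ug/ml Hoechst) and their nuclei counted on 4× images. Treatment had been applied by pin tool the day after seeding as one drug alone or as a fixed anchor-drug dose with five library-drug doses (not always all listed) in √10 steps. Relative viability is the nuclei count of treated wells divided by that of vehicle wells, and values are medians of duplicate plates.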

IMD-0354 + Pictilisib = compound: O=C(Nc1cc(C(F)(F)F)cc(C(F)(F)F)c1)c1cc(Cl)ccc1O [IMD-0354] + CS(=O)(=O)N1CCN(Cc2cc3nc(-c4cccc5[nH]ncc45)nc(N4CCOCC4)c3s2)CC1 [Pictilisib] (partner 1 µM)
Summary of the method: as §1

CX-5461 + Dasatinib = compound: Cc1cnc(CNC(=O)c2c(=O)c3ccc(N4CCCN(C)CC4)nc3n3c2sc2ccccc23)cn1 [CX-5461] + Cc1nc(Nc2ncc(C(=O)Nc3c(C)cccc3Cl)s2)cc(N2CCN(CCO)CC2)n1 [Dasatinib] (partner 0.075 µM)
Summary of the method: as §1

IMD-0354 + Foretinib = compound: O=C(Nc1cc(C(F)(F)F)cc(C(F)(F)F)c1)c1cc(Cl)ccc1O [IMD-0354] + COc1cc2c(Oc3ccc(NC(=O)C4(C(=O)Nc5ccc(F)cc5)CC4)cc3F)ccnc2cc1OCCCN1CCOCC1 [Foretinib] (partner 0.25 µM)
Summary of the method: as §1

Cell Line | relative viability (IMD-0354 + Trametinib; first compound 0.04 µM) | relative viability (IMD-0354 + Trametinib; first compound 0.1265 µM) | relative viability (IMD-0354 + Trametinib; first compound 0.4 µM) | relative viability (IMD-0354 + Trametinib; first compound 1.265 µM) | relative viability (IMD-0354 + Trametinib; first compound 4 µM) | relative viability (IMD-0354 + Pictilisib; first compound 0.04 µM) | relative viability (IMD-0354 + Pictilisib; first compound 0.1265 µM) | relative viability (IMD-0354 + Pictilisib; first compound 0.4 µM) | relative viability (IMD-0354 + Pictilisib; first compound 1.265 µM) | relative viability (IMD-0354 + Pictilisib; first compound 4 µM) | relative viability (CX-5461 + Dasatinib; first compound 0.01 µM) | relative viability (CX-5461 + Dasatinib; first compound 0.03162 µM) | relative viability (CX-5461 + Dasatinib; first compound 0.1 µM) | relative viability (CX-5461 + Dasatinib; first compound 0.3162 µM) | relative viability (CX-5461 + Dasatinib; first compound 1 µM) | relative viability (IMD-0354 + Foretinib; first compound 0.04 µM) | relative viability (IMD-0354 + Foretinib; first compound 0.1265 µM) | relative viability (IMD-0354 + Foretinib; first compound 0.4 µM) | relative viability (IMD-0354 + Foretinib; first compound 1.265 µM) | relative viability (IMD-0354 + Foretinib; first compound 4 µM)
HCC-44 | 1.09 | 1.14 | 0.973 | 1.04 | 0.319 | 0.634 | 0.534 | 0.415 | 0.12 | 0.156 |  |  |  |  |  |  |  |  |  | 
HCC-827 | 0.54 | 0.524 | 0.469 | 0.393 | 0.197 | 1.03 | 0.795 | 0.691 | 0.66 | 0.337 | 0.346 | 0.277 | 0.349 | 0.35 | 0.298 | 1.05 | 0.978 | 0.625 | 0.282 | 0.19
NCI-H1623 |  |  |  |  |  |  |  |  |  |  | 0.524 | 0.473 | 0.521 | 0.568 | 0.534 | 0.896 | 0.908 | 0.764 | 0.687 | 0.457
NCI-H2347 | 0.279 | 0.296 | 0.227 | 0.27 | 0.207 | 0.77 | 0.532 | 0.679 | 0.624 | 0.392 | 0.336 | 0.295 | 0.4 | 0.333 | 0.328 | 1.11 | 0.842 | 0.523 | 0.599 | 0.513
PC-14 | 0.945 | 0.826 | 0.301 | 0.359 | 0.109 | 1.05 | 0.713 |  | 0.409 | 0.132 | 0.312 | 0.251 | 0.295 | 0.272 | 0.0972 | 1.05 | 0.799 | 0.698 | 0.546 | 0.179
NCI-H1651 | 0.803 | 0.729 | 0.729 | 0.877 | 0.238 | 0.663 | 0.461 | 0.34 | 0.068 | 0.0829 | 0.378 | 0.254 |  | 0.178 | 0.112 | 0.816 | 0.716 | 0.433 | 0.312 | 0.0982
HARA | 0.772 | 0.517 | 0.632 | 0.225 | 0.262 | 0.598 | 0.3 | 0.393 | 0.116 | 0.193 | 0.308 | 0.246 | 0.213 |  | 0.213 | 1.07 | 0.866 | 0.568 | 0.159 | 0.125
NCI-H1650 | 0.568 | 0.558 | 0.479 | 0.131 | 0.254 | 0.722 | 0.484 | 0.434 | 0.166 | 0.191 | 0.355 | 0.326 | 0.195 | 0.305 | 0.14 | 1.32 | 1.1 | 0.581 | 0.207 | 0.245
NCI-H1793 | 0.346 | 0.442 | 0.283 | 0.211 | 0.169 | 0.357 | 0.319 | 0.235 | 0.172 | 0.206 | 0.347 | 0.409 | 0.368 |  | 0.343 | 0.844 | 0.622 | 0.305 | 0.22 | 0.202
SK-LU-1 | 0.447 | 0.514 | 0.41 | 0.239 | 0.269 | 0.681 | 0.583 | 0.379 | 0.33 | 0.233 | 0.178 | 0.159 | 0.142 |  | 0.102 | 0.808 | 0.752 | 0.457 | 0.169 | 0.221
LU99A | 0.434 | 0.475 | 0.442 | 0.505 | 0.206 | 0.287 | 0.304 | 0.357 | 0.152 | 0.156 | 0.759 | 0.499 | 0.439 | 0.341 | 0.172 | 0.655 | 0.806 | 0.612 | 0.682 | 0.273
NCI-H1355 | 0.446 | 0.398 | 0.402 | 0.331 | 0.244 | 0.619 | 0.404 | 0.327 | 0.196 | 0.206 | 0.81 | 0.792 | 0.665 | 0.449 | 0.389 | 1.11 | 0.943 | 0.646 | 0.908 | 0.298
HCC-78 | 0.765 | 0.687 | 0.766 | 0.782 | 0.334 | 0.179 | 0.204 | 0.207 | 0.095 | 0.126 | 0.431 | 0.381 | 0.406 | 0.421 | 0.322 | 0.554 | 0.574 | 0.488 | 0.701 | 0.322
NCI-H1563 |  |  |  |  |  | 0.635 | 0.704 | 0.595 | 0.387 | 0.318 | 0.461 | 0.426 | 0.464 | 0.444 | 0.444 | 1.06 | 0.936 | 0.837 | 0.388 | 0.44
HCC-15 | 0.387 | 0.35 | 0.335 | 0.269 | 0.146 | 0.632 | 0.696 | 0.437 | 0.14 | 0.133 | 0.673 | 0.666 | 0.655 | 0.617 | 0.229 | 1.03 | 0.891 | 0.636 | 0.178 | 0.152
EKVX | 0.399 | 0.3 |  | 0.339 | 0.175 | 0.477 | 0.465 |  | 0.389 | 0.174 | 0.55 | 0.522 | 0.481 | 0.554 | 0.477 | 0.974 | 0.975 | 0.714 | 0.0943 | 0.13
NCI-H2087 | 0.18 | 0.183 | 0.125 | 0.097 | 0.116 | 0.711 | 0.979 | 0.43 | 0.198 | 0.228 | 0.938 | 0.903 | 0.736 | 0.793 | 0.554 | 1.08 | 1.04 | 0.382 | 0.257 | 0.189
